Test [1] has as its system KDM5A-overexpressed breast cancer cells, MCF7. Nature of the test: Growth inhibitory activity on KDM5A-overexpressed cell lines (MCF7), single concentration. In kind it is cell-based. As to conditions: Homo sapiens; MCF7, single concentration 10 μM; read-out: Growth inhibitory activity at 10 μM (inhibition proportion %). On the procedure: The compound of the present invention was treated at a single concentration with KDM5A-overexpressed breast cancer cells, MCF7, and growth inhibitory activity was measured as an inhibition proportion (%).

The test system of test [2] is A549 lung cancer cell line. Nature of the test: Inhibitory activity on cancer cell proliferation, A549. As to conditions: Homo sapiens. In kind it is cell-based. On the procedure: (§1) The following test was conducted to identify whether the compound of the present invention has inhibitory activity on cancer cell proliferation.
(§2) The cancer cells herein used were lung cancer cell lines (NCI-H1299, A549) and breast cancer cell lines (MDA-MB-231).
(§3) Specifically, the NCI-H1299 cells were large cell lung carcinoma cell lines derived from human lung cancer tissues, and the MDA-MB231 cells were cell lines derived from human breast cancer tissues and obtained from the Korean cell line bank (KNCC, Seoul university), which were used for tests after passage culture. The NCI-H1299 and MDA-MB231 cell lines were cultured in a RPMI1640 medium supplemented with 10% FBS (fetal bovine serum), and were washed with buffered saline (PBS, pH 7.4), when the cells were proliferated on a plate at an affluence of 70 to 80%, and isolated into single cells using a 0.05% trypsin-EDTA (welgene) solution, and then passage-cultured at 1×10e6 cells/mL which were used for the test. […] After 72 hours, absorbance was measured using a CellTiter-Glo® Luminescent Cell Viability Assay (Promega) and an Envision 2103 multilabel reader (PerkinElmer). At this time, cells treated only with dimethylsulfoxide (DMSO) were used as the control group and relative viability (%) was calculated, based on 100% of the control group. […]

The test system of test [3] is MDA-MB-231 breast cancer cell line. Put plainly: Inhibitory activity on cancer cell proliferation, MDA-MB-231 (CellTiter-Glo, 72 hours). To be noted: Homo sapiens; MDA-MB-231, 72 hours. In kind it is cell-based. The procedure: as §1, §2
Specifically, the NCI-H1299 cells were large cell lung carcinoma cell lines derived from human lung cancer tissues, and the MDA-MB231 cells were cell lines derived from human breast cancer tissues and obtained from the Korean cell line bank (KNCC, Seoul university), which were used for tests after passage culture. The NCI-H1299 and MDA-MB231 cell lines were cultured in a RPMI1640 medium supplemented with 10% FBS (fetal bovine serum), and were washed with buffered saline (PBS, pH 7.4), when the cells were proliferated on a plate at an affluence of 70 to 80%, and isolated into single cells using a 0.05% trypsin-EDTA (welgene) solution, and then passage-cultured at 1×10e6 cells/mL which were used for the test. 100 μL of NCI-H1299 and 100 μL of MDA-MB231 were seeded on a 96-well plate at 2×10e4 cells/mL, and 5×10e4 cells/mL, respectively, stabilized in the presence of CO2 for 12 hours or longer, and then treated at different concentrations with the subject compound. After 72 hours, absorbance was measured using a CellTiter-Glo® Luminescent Cell Viability Assay (Promega) and an Envision 2103 multilabel reader (PerkinElmer). At this time, cells treated only with dimethylsulfoxide (DMSO) were used as the control group and relative viability (%) was calculated, based on 100% of the control group. GI50 was obtained using Graph PRISM 6 software.
For orientation: In ATP-based viability assays light output follows the ATP content of the culture.

For the next test, the system named is NCI-H1299 cells. Nature of the test: Inhibitory activity on cancer cell proliferation, NCI-H1299 (CellTiter-Glo, 72 hours). In kind it is cell-based. To be noted: Homo sapiens; NCI-H1299, 72 hours. On the procedure:
as §1, §2, §3

For test [4], the target named is KDM5A (lysine demethylase 5A) (Homo sapiens, UniProt P29375). Put plainly: Inhibitory activity against histone demethylase (in vitro IC50). In kind it is biochemical. On the procedure: Inhibitory activity against histone demethylase of the compound of the present invention was evaluated.
KDM5A (lysine demethylase 5A), sequence (P29375 whole entry, species assumed): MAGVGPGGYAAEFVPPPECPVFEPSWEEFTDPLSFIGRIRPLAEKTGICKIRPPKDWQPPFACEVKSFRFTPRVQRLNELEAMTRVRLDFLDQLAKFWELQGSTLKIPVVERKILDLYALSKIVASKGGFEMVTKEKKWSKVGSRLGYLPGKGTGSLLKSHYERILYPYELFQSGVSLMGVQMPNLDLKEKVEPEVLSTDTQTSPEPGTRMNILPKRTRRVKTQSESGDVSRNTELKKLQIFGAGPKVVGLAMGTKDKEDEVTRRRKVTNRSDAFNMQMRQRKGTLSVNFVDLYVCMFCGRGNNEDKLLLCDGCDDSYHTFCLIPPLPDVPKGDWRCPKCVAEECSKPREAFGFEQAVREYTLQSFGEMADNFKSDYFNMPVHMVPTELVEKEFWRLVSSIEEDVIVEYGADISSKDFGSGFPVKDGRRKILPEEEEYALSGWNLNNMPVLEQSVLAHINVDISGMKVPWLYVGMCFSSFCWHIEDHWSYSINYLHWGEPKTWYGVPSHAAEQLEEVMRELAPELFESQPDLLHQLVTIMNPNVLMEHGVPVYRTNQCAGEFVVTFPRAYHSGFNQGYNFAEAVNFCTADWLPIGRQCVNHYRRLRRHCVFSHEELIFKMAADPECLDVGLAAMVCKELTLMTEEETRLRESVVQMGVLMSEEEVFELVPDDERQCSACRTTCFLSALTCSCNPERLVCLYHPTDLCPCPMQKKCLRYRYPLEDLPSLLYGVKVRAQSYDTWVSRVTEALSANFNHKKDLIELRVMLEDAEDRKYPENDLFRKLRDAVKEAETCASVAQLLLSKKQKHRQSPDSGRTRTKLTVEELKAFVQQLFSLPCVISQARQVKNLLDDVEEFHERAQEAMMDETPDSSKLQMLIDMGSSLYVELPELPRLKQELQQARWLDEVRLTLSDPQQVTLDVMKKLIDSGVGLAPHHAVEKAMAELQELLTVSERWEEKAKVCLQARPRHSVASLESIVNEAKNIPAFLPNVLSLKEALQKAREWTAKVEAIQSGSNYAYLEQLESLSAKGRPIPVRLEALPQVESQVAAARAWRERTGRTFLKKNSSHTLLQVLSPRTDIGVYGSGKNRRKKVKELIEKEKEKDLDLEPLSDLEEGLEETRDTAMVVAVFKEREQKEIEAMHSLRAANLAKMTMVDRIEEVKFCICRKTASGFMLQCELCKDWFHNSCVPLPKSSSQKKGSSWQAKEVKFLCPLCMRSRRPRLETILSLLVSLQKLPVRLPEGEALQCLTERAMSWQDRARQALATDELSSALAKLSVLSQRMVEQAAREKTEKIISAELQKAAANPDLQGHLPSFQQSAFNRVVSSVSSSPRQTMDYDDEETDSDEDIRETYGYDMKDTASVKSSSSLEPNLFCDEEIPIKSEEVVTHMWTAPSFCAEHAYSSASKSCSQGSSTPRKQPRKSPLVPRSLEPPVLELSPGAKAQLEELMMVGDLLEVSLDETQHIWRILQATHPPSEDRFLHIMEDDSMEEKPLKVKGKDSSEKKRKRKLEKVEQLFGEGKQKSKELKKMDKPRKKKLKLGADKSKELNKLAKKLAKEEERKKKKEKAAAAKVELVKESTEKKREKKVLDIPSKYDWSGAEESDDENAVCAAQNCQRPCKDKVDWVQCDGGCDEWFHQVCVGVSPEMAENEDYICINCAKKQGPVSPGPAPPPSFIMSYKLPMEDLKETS

The term inhibition denotes the change of the read-out against control, counted positive when it falls. Regarding `O=C(O)c1ncncc1NCc1ccc(-c2ccccc2)cc1` [Example 1, 5-(([1,1′-biphenyl]-4-ylmethyl)amino)pyrimidine-4-carboxylic Acid], in test [1], the inhibition at 10 µM lay in the range of 40 to 80%.

As a reminder, the GI50 is the concentration giving 50% growth inhibition. A high value points to less potent growth inhibition. For the compound `O=C(O)c1ncncc1NCc1ccc(Cl)c(Cl)c1` [Example 3, 5-((3,4-dichlorobenzyl)amino)pyrimidine-4-carboxylic Acid], the GI50 in test [2] and in test [3] was 10 to 100 µM in each case.

Take `O=C(O)c1ncncc1NCc1ccc(F)cc1` [Example 6, 5-((4-fluorobenzyl)amino)pyrimidine-4-carboxylic Acid]: the GI50 in test [3] lay within 10 to 100 µM.

In test [3], `O=C(O)c1ncncc1NCc1cc(C(F)(F)F)cc(C(F)(F)F)c1` [Example 7, 5-((3,5-bis(trifluoromethyl)benzyl)amino)pyrimidine-4-carboxylic Acid] displayed a GI50 of 10 to 100 µM.

In the case of `Cc1ccc(CNc2cncnc2C(=O)O)cc1` [Example 9, 5-((4-methylbenzyl)amino)pyrimidine-4-carboxylic Acid], the GI50 in test [3] is 10 to 100 µM.

The compound `O=C(O)c1ncncc1NCc1cccc(F)c1` [Example 10, 5-((3-fluorobenzyl)amino)pyrimidine-4-carboxylic Acid] came in with a GI50 in the test on NCI-H1299 cells of under 10 µM.

For orientation: IC50 means the concentration that gives 50% inhibition. Low readings indicate inhibition by little substance, high ones a need for much substance. Regarding `CCCn1nc(Nc2cncnc2C(=O)O)c2ccccc21` [Example 12, 5-((1-propyl-1H-indazol-3-yl)amino)pyrimidine-4-carboxylic Acid], the IC50 in test [4] was under 3 µM. Besides, the GI50 in test [2] and in test [3] was 10 to 100 µM in each case.

The values are drawn from patent US10494346B2, “Substituted pyrimidine-4-carboxylic acids having anticancer activity” (KOREA INSTITUTE OF SCIENCE AND TECHNOLOGY, priority 2016, dated 2019).
